Test systems include BT-549 breast; UACC-62 melanoma; SF-539 CNS; SR leukemia; MDA-MB-231 breast; IGROV1 ovarian; SF-295 CNS; HL-60(TB) leukemia; K-562 leukemia; UACC-257 melanoma.
Assay in all cases: growth of human tumour cells (NCI), 48 h

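Five compound concentrations were applied to cells in 96-well plates for 48 hours; endpoints were derived by simple linear interpolation of the resulting dose-response curve. GI50: concentration for 50% inhibition of growth. TGI denotes the concentration required for complete inhibition of growth.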

With `CC1=C([Se]CC(OC(=O)[C@@H](CSSC(C)(C)C)NC(=O)C(C)(C)C)C(=O)NCCCCCC(=O)OCc2ccccc2)C(=O)c2ccccc2C1=O` (stereo partly specified), the GI50 with BT-549 breast is 1.76 µM; with UACC-62 melanoma, 1.96 µM; with SF-539 CNS, 1.9 µM; in the assay with SR leukemia it was 3.84 µM; in the assay on MDA-MB-231 breast it was 1.92 µM; in the assay on IGROV1 ovarian, 1.9 µM. Besides, the values for the GI50 in the assay with SF-295 CNS and in the assay with HL-60(TB) leukemia were 0.317 µM and 2.51 µM, respectively. Also, the TGI was found to be 3.15 µM in the assay with BT-549 breast; 3.99 µM in the assay on UACC-62 melanoma; 3.36 µM in the assay on SF-539 CNS; 18.5 µM in the assay with SR leukemia; 4.23 µM in the assay with MDA-MB-231 breast; 3.66 µM with IGROV1 ovarian. Also, the TGI was determined as 1.95 µM with SF-295 CNS and 5.98 µM with HL-60(TB) leukemia.
With `Fc1ccc(Nc2ccc3cc(OCCCN4CCOCC4)ccc3n2)cc1F`, the GI50 in the assay with BT-549 breast was 7.28 µM; in the assay with UACC-62 melanoma, 1.99 µM; in the assay with SF-539 CNS, 3.22 µM; in the assay with K-562 leukemia it was 2.78 µM; in the assay on SR leukemia it was 2.03 µM; in the assay on MDA-MB-231 breast, 1.96 µM. In addition, the GI50 with IGROV1 ovarian is 10.9 µM; in the assay with SF-295 CNS, 1.89 µM; in the assay on UACC-257 melanoma, 2.77 µM. In addition, the TGI with BT-549 breast was 52.1 µM; in the assay with UACC-62 melanoma, 4.94 µM; in the assay with SF-539 CNS, 18.7 µM; in the assay on K-562 leukemia, above 100 µM; in the assay with SR leukemia, 32.8 µM; with MDA-MB-231 breast it was 4.68 µM. The figures for the TGI in the assay with IGROV1 ovarian, in the assay on SF-295 CNS and in the assay on UACC-257 melanoma were above 100 µM, 4.3 µM and 6.88 µM, respectively.
As for `Cc1ccc(-c2nc3nc(-c4ccc(Cl)cc4)nc(N4CCCNCC4)c3o2)cc1`, the GI50 is 1.9 µM in the assay on BT-549 breast; 1.74 µM in the assay with UACC-62 melanoma; 1.71 µM in the assay on SF-539 CNS; 1.83 µM in the assay with MDA-MB-231 breast; 1.65 µM in the assay on IGROV1 ovarian; 1.82 µM in the assay with SF-295 CNS. Further, the figures for the GI50 in the assay with UACC-257 melanoma and in the assay on HL-60(TB) leukemia were 1.91 µM and 1.4 µM, respectively. The TGI was found to be 3.61 µM in the assay with BT-549 breast; 3.24 µM with UACC-62 melanoma; 3.12 µM in the assay with SF-539 CNS; 3.37 µM with MDA-MB-231 breast; 3.15 µM with IGROV1 ovarian; 3.39 µM with SF-295 CNS. Further, the TGI turned out to be 3.65 µM with UACC-257 melanoma and 3.25 µM in the assay with HL-60(TB) leukemia.
On to `Cc1cc(S(=O)(=O)/N=C(\N)n2nc(C)c(C)c2C)c(SCc2ccccc2)cc1Cl`, for which the GI50 in the assay with BT-549 breast is above 100 µM; in the assay with UACC-62 melanoma it was above 100 µM; in the assay with SF-539 CNS it was above 100 µM; with K-562 leukemia it was 4.15 µM; in the assay on SR leukemia, above 100 µM; in the assay on MDA-MB-231 breast, above 100 µM. Besides, the results for the GI50 with SF-295 CNS and with UACC-257 melanoma were 7.99 µM and 63.8 µM, respectively. The TGI with BT-549 breast, in the assay on UACC-62 melanoma, in the assay on SF-539 CNS, with K-562 leukemia, in the assay on SR leukemia and in the assay on MDA-MB-231 breast was above 100 µM in each case. Further, the TGI in the assay with SF-295 CNS and in the assay on UACC-257 melanoma was above 100 µM each time.
`O=C1OC2(c3ccccc31)c1cc(I)c(O)c(I)c1Oc1c2cc(I)c(O)c1I`: the TGI with BT-549 breast, in the assay with UACC-62 melanoma, in the assay on SF-539 CNS, in the assay with K-562 leukemia, in the assay on SR leukemia and in the assay on MDA-MB-231 breast was above 100 µM each time. Also, the TGI in the assay with IGROV1 ovarian, in the assay on SF-295 CNS and in the assay on UACC-257 melanoma was above 100 µM in each case.
Turning to `Cn1c(Cc2ccccc2)nc2cc3ccccc3cc21`, the GI50 in the assay with BT-549 breast was 21.2 µM; in the assay with UACC-62 melanoma, 19.6 µM; in the assay on SF-539 CNS it was 20.6 µM; with K-562 leukemia, 37.4 µM; in the assay with SR leukemia it was 18.1 µM; in the assay with MDA-MB-231 breast, 16 µM. In addition, the GI50 was 25.5 µM with IGROV1 ovarian, 25.5 µM in the assay with SF-295 CNS and 26.8 µM with UACC-257 melanoma. In addition, the TGI with BT-549 breast was 45.3 µM; in the assay on UACC-62 melanoma it was 43.5 µM; with SF-539 CNS, 37.4 µM; in the assay on K-562 leukemia it was above 100 µM; with SR leukemia, 48.1 µM; in the assay with MDA-MB-231 breast it was 37.5 µM. In addition, the TGI in the assay on IGROV1 ovarian is above 100 µM; with SF-295 CNS, 75.6 µM; in the assay on UACC-257 melanoma it was 61.9 µM.
For the compound `COc1ccc2c(c1)C(=O)c1c-2c(N2CCN(C(=O)CN(C)C)CC2)nc2ccccc12`, the GI50 with BT-549 breast is 14.5 µM; in the assay with UACC-62 melanoma it was 15.3 µM; in the assay on SF-539 CNS it was 15.1 µM; in the assay with K-562 leukemia it was 9.17 µM; in the assay with MDA-MB-231 breast, 13.3 µM; in the assay with IGROV1 ovarian, 10 µM. In addition, the GI50 was 13.7 µM with SF-295 CNS, 12.1 µM in the assay on UACC-257 melanoma and 20 µM in the assay on HL-60(TB) leukemia. Moreover, the TGI with BT-549 breast is 33.5 µM; in the assay with UACC-62 melanoma, 37.3 µM; in the assay on SF-539 CNS, 30.3 µM; with K-562 leukemia, above 100 µM; in the assay on MDA-MB-231 breast it was 28.9 µM; in the assay with IGROV1 ovarian, 26.4 µM. Also, the TGI amounted to 41 µM with SF-295 CNS, 30.3 µM in the assay on UACC-257 melanoma and 52.4 µM in the assay on HL-60(TB) leukemia.
For `C/C(=C\c1ccn(-c2ccc(N)cc2C(F)(F)F)n1)[C@@H]1C[C@@H]2O[C@]2(C)CCC[C@H](C)[C@H](O)[C@@H](C)C(=O)C(C)(C)[C@@H](O)CC(=O)O1`, the GI50 with BT-549 breast is 0.553 µM; with UACC-62 melanoma, 0.488 µM; in the assay with SF-539 CNS it was 0.305 µM; in the assay with K-562 leukemia, 0.356 µM; with MDA-MB-231 breast, 1.51 µM; with IGROV1 ovarian it was 0.778 µM. Besides, the GI50 in the assay on SF-295 CNS was 0.314 µM; in the assay on UACC-257 melanoma, 1.03 µM; with HL-60(TB) leukemia it was 0.296 µM. Moreover, the TGI is above 11.1 µM in the assay with BT-549 breast; above 11.1 µM with UACC-62 melanoma; 1.86 µM in the assay with SF-539 CNS; above 11.1 µM in the assay with K-562 leukemia; above 11.1 µM in the assay with MDA-MB-231 breast; above 11.1 µM in the assay on IGROV1 ovarian. Moreover, the figures for the TGI in the assay on SF-295 CNS, in the assay on UACC-257 melanoma and in the assay with HL-60(TB) leukemia were 2.19 µM, above 11.1 µM and 1.07 µM, respectively.
On to `CCC[CH2][Sn]([CH2]CCC)([O]C(=O)c1cccc(F)c1F)[O][Sn]([CH2]CCC)([CH2]CCC)[O]C(=O)c1cccc(F)c1F`, for which the GI50 in the assay with BT-549 breast was 0.121 µM; with UACC-62 melanoma it was 0.173 µM; in the assay on SF-539 CNS, 0.208 µM; in the assay on K-562 leukemia, 0.0371 µM; in the assay with SR leukemia, 0.0771 µM; with MDA-MB-231 breast it was 0.218 µM. In addition, the GI50 was 0.781 µM in the assay with IGROV1 ovarian, 0.919 µM in the assay with SF-295 CNS and 0.222 µM in the assay with UACC-257 melanoma. Besides, the TGI in the assay with BT-549 breast was 0.369 µM; in the assay with UACC-62 melanoma it was 0.423 µM; in the assay on SF-539 CNS, 0.722 µM; in the assay on K-562 leukemia, above 100 µM; in the assay with MDA-MB-231 breast, 1.19 µM; with IGROV1 ovarian it was 2.15 µM. The figures for the TGI in the assay on SF-295 CNS and with UACC-257 melanoma were 2.19 µM and 0.728 µM, respectively.

These data come from PubChem BioAssay (NCI).
